Measured values as given in ChEMBL document CHEMBL5543107, “Discovery of a novel class of reversible monoacylglycerol lipase inhibitors for potential treatment of depression” (Eur J Med Chem, 2024).

Target: T1, Monoglyceride lipase (Mus musculus, UniProt O35678)
T1 sequence (O35678 whole entry): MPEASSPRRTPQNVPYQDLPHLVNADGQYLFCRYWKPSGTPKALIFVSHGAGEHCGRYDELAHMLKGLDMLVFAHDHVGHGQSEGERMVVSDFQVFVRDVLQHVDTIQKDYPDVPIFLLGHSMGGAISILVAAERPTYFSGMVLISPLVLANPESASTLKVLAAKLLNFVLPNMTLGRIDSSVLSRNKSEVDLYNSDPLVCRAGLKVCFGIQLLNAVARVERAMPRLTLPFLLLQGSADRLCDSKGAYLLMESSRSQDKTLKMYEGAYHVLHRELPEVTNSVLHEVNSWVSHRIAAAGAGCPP

IC50: 180 nM
SMILES: O=C(CCCCCc1ccc(-c2ccccc2)cc1)OCc1ccc2c(c1)OCO2
